According to article PMC9732821, “Neurotrophic Activity and Its Modulation by Zinc Ion of a Dimeric Peptide Mimicking the Brain-Derived Neurotrophic Factor N-Terminal Region” (ACS Chemical Neuroscience, 2022):

B1: brain-derived neurotrophic factor (protein, UniProt P23560 1-247, looked up)
chain: MTILFLTMVISYFGCMKAAPMKEANIRGQGGLAYPGVRTHGTLESVNGPKAGSRGLTSLADTFEHVIEELLDEDQKVRPNEENNKDADLYTSRVMLSSQVPLEPPLLFLLEEYKNYLDAANMSMRVRRHSDPARRGELSVCDSISEWVTAADKKTAVDMSGGTVTVLEKVPVSKGQLKQYFYETKCNPMGYTKEGCRGIDKRHWNSQCRTTQSYVRALTMDSKKRIGWRFIRIDTSCVCTLTIKRGR
modifications: full-length
notes: full-length human BDNF produced recombinantly in Escherichia coli

Key:
SH-SY5Y cells = assay: RT-PCR gene expression analysis of differentiated SH-SY5Y cells; format: cell-based, human; conditions: RT-PCR mRNA, four replicas, two independent experiments
Excerpt: Figure 4 Neuronal differentiation and polarization genes stimulated by BDNF and d-bdnf mimetic peptide. (A) Schematic timeline of the experiment. As non-differentiated control, we used untreated cells seeded at the same density (non-diff ctrl, white bars). As a control for the expression of neuronal polarization genes, we used cells stopped at d5 (non-pol ctrl). (B) RT-PCR analysis of the mRNA expression levels of neuronal differentiation markers (NTRK2, LAMC1, and NEFM) and polarization markers (GAP43, MAP2, and MAPT) induced by BDNF and d-bdnf with respect to non-diff and non-pol ctrl samples, respectively. Data are expressed as fold changes with respect to the average ctrl value set to 1, and the mean ± SEM of four replicas from two independent experiments are reported (****p < 0.0001, ***p < 0.001, **p < 0.01, and *p < 0.05 according to the one-way ANOVA with Bonferroni’s multiple comparison test).
Figure 6 Modulation of d-bdnf neurotrophic activity by Zn^2+ ion. (A) Neurite outgrowth assay for d-bdnf-Zn^2+ conjugate. The ctrl and d-bdnf samples are the same as in Figure 2C, here reported as a reference. Data represent the mean ± SD of fields pooled from two independent replicas. (****p < 0.0001, according to the one-way ANOVA with Dunnett’s multiple comparison test). (B) RT-PCR analysis of the mRNA expression levels of the marker genes (as described in Figure 3B). Data are expressed as fold changes with respect to the average ctrl value set to 1, and the mean ± SEM of four replicas from two independent experiments are reported (**p < 0.01, *p < 0.05, vs ctrl; #p < 0.05 vs d-bdnf, according to one-way ANOVA with Bonferroni’s multiple comparison test). […]
RT-PCR analysis of SH-SY5Y differentiation
At the end of each differentiation treatment and relative controls, cells were col lected, and total RNA was extracted using the Rneasy Mini Kit (Qiagen). The RNA concentration and purity were checked at the Nanodrop instrument (Thermofisher). cDNA synthesis was performed with 1 µg of RNA using i-Script cDNA synthesis kit (BioRad). Real-time PCR reactions consisted of 10 µL of SsoAdvanced™ Universal SYBR® Green Supermix - Bio-Rad, 0.5 µL of both 10 µM forward and reverse primers, 5 µL of cDNA (50 ng), and 4 µL of H2O. The primer sequences and the product size […]
HPRT1 and NEFM primers were purchased by Biorad (qHsaCID0016375 and qHsaCED0043021, Bio-Rad). The mRNA levels for each sample were normalized against GAPDH and HPRT1 mRNA levels, and the relative expression was calculated by using the methods of the […]

TrkB-EGFP = assay: TrkB dimerization, number & brightness (N&B) in living SH-SY5Y cells; format: cell-based, human; conditions: 150 ng/mL BDNF or 10 μM d-bdnf, within 30 min; f-EGFP monomeric reference; two independent experiments
Protocol: Figure 1 Activation of the TrkB receptor by BDNF and its mimetic peptide ligands. (A) Schematic picture of the human TrkB receptor fused to the EGFP construct (hTrkB-EGFP); recombinant human mature BDNF (hBDNF); monomeric peptide, m-bdnf; dimeric peptide, d-bdnf; scrambled s-bdnf. (B) WB showing Tyr phosphorylation (p-Tyr, top) and total TrkB levels (bottom) in SH-SY5Y cells transfected with hTrkB-EGFP in the absence (ctrl) or presence of 10 min stimulation with 150 ng/mL BDNF or 10 μM m-bdnf, d-bdnf, or s-bdnf. Samples were immunoprecipitated (IP) with the anti-GFP antibody before WB. […] (C) Scatter dot plot of ERK (left) and AKT (right) phosphorylation levels detected in differentiated SH-SY5Y cells, after stimulation with the same treatments as in (B). […] (G) Bar graph of mean ± SD ‘B-1’ values retrieved from N&B analysis for all the different conditions measured. […]
The same TrkB-GFP expressing SH-SY5Y cells were used to deeper investigate the mechanism of TrkB activation induced by d-bdnf, using an advanced imaging approach in living cells. We exploited a fluorescence correlation technique, which directly correlates the brightness of each fluorescent pixel of the image to the number of TrkB molecules averagely populating that pixel during the observation time (number & brightness technique—N&B[34],[35]). […]

Row | Molecule | MAPT expression (SH-SY5Y cells; axon marker, d-bdnf vs BDNF) | MAP2 expression (SH-SY5Y cells; dendrite marker, d-bdnf vs BDNF) | LAMC1 expression (SH-SY5Y cells; d-bdnf vs BDNF) | NTRK2 expression (SH-SY5Y cells; d-bdnf vs BDNF) | GAP43 gene expression (SH-SY5Y cells) | NEFM gene expression (SH-SY5Y cells) | TrkB monomer/dimer state at plasma membrane (TrkB-EGFP)
1 | HSDPARRGELSVC-C-VSLEGRRAPDSH (disulfide) [d-bdnf] | to a similar extent to BDNF | to a similar extent to BDNF | to promote, to a similar extent of BDNF, the expression of NTRK2 and LAMC1 genes | to promote, to a similar extent of BDNF, the expression of NTRK2 and LAMC1 genes | not significantly increased by either the d-bdnf doses tested | significantly increased only at the highest d-bdnf dose (10 μM) | shift toward the dimeric form
2 | B1 | – | – | – | – | – | – | shift toward the dimeric form
